What was measured:
[1] = system: ACCase of cell line 2167-9/2160-154 S-1; test: Herbicide inhibition of ACCase, line S-1; assay type: biochemical, maize; settings: cell line S-1
Experimental: (§1) Maize chloroplasts, isolated as described above, were suspended in buffer C (0.1 M Tricine-KOH, pH 8.0; 0.3 M glycerol, and 1 mM DTT) and homogenized in a glass tissue homogenizer. The disrupted chloroplast fraction was centrifuged at 16,000 g for 15 minutes. The supernatant was desalted on a Sephadex G-25 column (1.5×5 cm equilibrated with 0.1 M Tricine-KOH, pH 8.0; and 0.3 M glycerol) and assayed directly. ACCase activity (B. J. Nikolau et al., Arch. Biochem. Biophys., 211, 605-612 (1981)) was assayed at 30° C. in a 0.2 ml volume which contained 1 mM ATP, 3 mM acetyl coenzyme A, 2.5 mM MgCl2, 50 mM KCl, 0.5 mM DTT, and 15 mM [^14C]NaHCO3 (0.17 mCi/mmol). Reactions were initiated by addition of acetyl coenzyme A and stopped by addition of 25 μl of 12 N HCl. Product formation was determined by the radioactivity found in an acid stable fraction by liquid scintillation spectrometry. Enzyme activity was linear for 15 minutes.
Acetyl Coenzyme A Carboxylase (ACCase) was extracted from cell lines S-1, H-1 and H-2 and assayed as described in detail for maize cell line S-2, above.

ACCase of S-2 tissue = ACCase of S-2 tissue (Zea mays, UniProt Q41743); test: ACCase activity, herbicide inhibition, S-2 tissue; assay type: biochemical, maize; settings: on concentration basis
Experimental: as §1
Assays were conducted to determine if ACCase extracted from cell line S-2 was altered with respect to herbicide activity. ACCase activity of control tissue was 50% inhibited either by 1.5 μM sethoxydim, or by 0.25 μM haloxyfop. ACCase activity of S-2 tissue was inhibited 50% either by 70 μM sethoxydim, or by 1.8 μM haloxyfop, indicating at least 40-fold and 7-fold decreases in herbicide sensitivity on concentration basis, respectively.

[2] = system: cell line 2167-9/2160-154 S-1; test: Callus herbicide tolerance, line S-1; assay type: cell-based, maize; settings: cell line S-1
Experimental: Tolerant cell line 2167-9/2160-154 S-2 (“S-2”) was characterized to evaluate: (1) the magnitude of sethoxydim tolerance; (2) cross-tolerance of haloxyfop; and (3) the biochemical basis for the tolerance. Callus tissue from S-2 that had been maintained on 10 μM sethoxydim was transferred to media containing up to 100 μM sethoxydim. One-half gram of S-2 tissue was plated on a 7 cm filter paper as a lawn overlaying 50 ml agar-solidified culture medium containing 0, 0.5, 1.0, 2.0, 5.0, 10.0, 50.0 and 100 μM sethoxydim, and cultured for two weeks. Control cell line 2167-9/2160-154 was plated similarly on medium containing the same levels of sethoxydim. The control cell line growth after two weeks was inhibited 50% at 1 μM sethoxydim.
The tolerant callus cultures were characterized to determine the magnitude of sethoxydim and haloxyfop tolerance. Callus tissue from these lines was evaluated in experiments as described above in the characterization of line 2167-9/2160-154 S-2.

[3] = system: progeny of 2167-9/2160-154 control plants; test: Sethoxydim treatment of progeny seedlings, greenhouse; assay type: in vivo, maize; settings: seedlings treated at 3-4 leaf stage, rated two weeks after treatment
Experimental: Seeds obtained by the crossing procedure described above were viable and germinated normally. Seeds from thirty S-2 selfed plants and fifteen 2167-9/2160-154 control plants were planted in 25×50 cm trays of soil (28 seeds from each plant in one tray) and grown in the greenhouse. Seedlings at the 3-4 leaf stage were treated with 0.1, 0.44, and 1.1 kg/ha sethoxydim and evaluated for visual herbicide damage and shoot height. Based on visual rating of herbicide damage two weeks after treatment, selfed progeny of S-2 plants segregated approximately 1:2:1 for healthy, uninjured plants: to plants showing partial injury: to dead plants, respectively, at 0.44 and 1.1 kg/ha sethoxydim treatments. All control progeny of 2167-9/2160-154 control plants were killed by 0.1 kg/ha and greater levels of sethoxydim. […] Similar tests were conducted on progeny of S-2 plants crossed to the other inbreds. In all cases, these test cross progeny treated with 0.44 kg/ha sethoxydim segregated 1:1 for growing shoots versus dead shoots whether S-2 plants were used as male or female parents. […] In all cases, control plants crossed to the other inbreds were killed and therefore sethoxydim-sensitive.

[4] = system: plants regenerated from the S-2 cell line; test: Whole plant sethoxydim spray, greenhouse, S-2 regenerated plants; assay type: in vivo, maize
Text: (§2) Groups of eight control (2167-9/2160-154 unselected) and eight S-2 plants were sprayed with either 0.0, 0.01, 0.05, 0.11, 0.22 or 0.44 kg/ha sethoxydim to determine whole plant sethoxydim-tolerance of greenhouse-grown plants. Control plants were killed by 0.05 kg/ha or more sethoxydim.

[5] = system: control (2167-9/2160-154 unselected) plants; test: Whole plant sethoxydim spray, greenhouse, control regenerated plants; assay type: in vivo, maize; settings: greenhouse-grown regenerated plants, sprayed
Text: as §2

| SMILES | Fold increase in herbicide concentration that inhibits ACCase activity by 50% vs unselected parent cell line [1] [fold] | Fold increase in herbicide concentration that inhibits ACCase activity by 50% vs unselected parent cell line ([1]; listed as haloxyfop) | Fold decrease in herbicide sensitivity of ACCase, S-2 versus control (ACCase of S-2 tissue) [fold] | Fold increase in herbicide concentration that results in a 50% reduction in growth vs unselected control cell line [2] | Fold increase in herbicide concentration that results in a 50% reduction in growth vs unselected control cell line ([2]; listed as haloxyfop) | Fold increase in herbicide concentration that inhibits ACCase activity by 50% vs unselected parent cell line ([1]; listed as sethoxydim) | Rate that killed all control progeny [3] [kg/ha] | Survival of S-2 plants ([4]; 0.44 kg/ha sethoxydim) | Shoot height of regenerated S-2 plants ([4]; 14 days after treatment with 0.44 kg/ha sethoxydim) | Fold more tolerance of S-2 plants than control ([4]; whole plant spray) | Rate that killed control plants [5] [kg/ha] |
| --- | --- | --- | --- | --- | --- | --- | --- | --- | --- | --- | --- |
| CC(Oc1ccc(Oc2ncc(C(F)(F)F)cc2Cl)cc1)C(=O)O (stereo not shown) [Haloxyfop, 2-[4-[[3-chloro-5-(trifluoromethyl)-2-pyridinyl]oxy]phenoxy]-propanoic acid] | 3 | more tolerant | ≥ 7 | 4^1 fold | four-fold increase | – | – | – | – | – | – |
| CCCC(=NOCC)C1=C(O)CC(CC(C)SCC)CC1=O (stereo not shown) [Sethoxydim, 2-[1-(ethoxyimino)-butyl]-5-[2-(ethylthio)propyl]-3-hydroxy-2-cyclohexen-1-one] | 4 | – | – | ~100 fold | – | more tolerant | ≥ 0.1 | survived | only slightly reduced | at least 20 fold | ≥ 0.05 |

Reference: US6414222B1, “Gene combinations for herbicide tolerance in corn” (Regents of the University of Minnesota, priority 1993, dated 2002)
